What all share (test): growth of human tumour cells (NCI), 48 h
The test system of assay [1] is ACHN.
For assay [2], the system named is DU-145.
The subject of assay [3] is HCT-116.
For assay [4], the system named is HCT-15.
Assay [5] concerns HL-60.
Assay [6] deals with HOP-62.
The test system of assay [7] is HOP-92.
Assay [8] deals with HT-29.
The subject of assay [9] is K562.
In assay [10] the test system is KM12.
Assay [11] has as its system OVCAR-5.
Assay [12] relates to RXF 393.
Assay [13] relates to SF-268.
Assay [14] concerns SF-539.
Assay [15] relates to SK-MEL-28.
The subject of assay [16] is SK-MEL-2.
Assay [17] has as its system SK-MEL-5.
Assay [18] concerns SN12C.
Assay [19] deals with SNB-19.
The subject of assay [20] is U-251.

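Five concentrations, 48 hours, 96-well plates. The concentration for 50% growth inhibition is given as GI50.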 Calls of active or inactive are those of the source. Cut-off read from the data, not from the text of the source: active = GI50 up to about 1.1 µM and inactive = higher. A value given as a limit tells only on which side of the number the result lay.

With `CC1CC(C)(O)CC(C(O)CC2CC(=O)NC(=O)C2)C1=O` (stereo not given) [RESACTIN A], the GI50 in [1] is 22.4 nM (active); in [2] it was 46.1 nM (active); in assay [3], 30.8 nM (active); in assay [4], 98.9 nM; in [5], 39.2 nM (active); in assay [6] it was 27 nM (active). In addition, the GI50 in assay [7] was < 20 nM (active); in assay [8] it was 37 nM (active); in [9], 30.9 nM (active); in assay [10], 32.7 nM (active); in assay [11] it was 59 nM (active); in assay [12], 34.4 nM (active). In addition, the GI50 was 45.5 nM (active) in [13]; 19.7 nM (active) in assay [14]; 47.8 nM (active) in [15]; 58.5 nM (active) in assay [16]; 13.2 nM (active) in assay [17]; 20.2 nM (active) in [18]. Further, the GI50 in [19] was 30.3 nM (active); in [20] it was 31.3 nM (active).
